Results: ChEMBL document CHEMBL5463724, “Data for DCP probe VZ185” (2023)
Calls of active or inactive are those of the source. The calls are words filed in the database; no cut-off is given here.

Assays:
Format in all cases: functional, cell-based
[1] = target: T1, Bromodomain-containing protein 7 (Homo sapiens, UniProt Q9NPI1); experiment: Degradation of BRD7 in RI-1 cells (8 h) (Western Blot degradation assay)
T1 sequence (Q9NPI1 whole entry): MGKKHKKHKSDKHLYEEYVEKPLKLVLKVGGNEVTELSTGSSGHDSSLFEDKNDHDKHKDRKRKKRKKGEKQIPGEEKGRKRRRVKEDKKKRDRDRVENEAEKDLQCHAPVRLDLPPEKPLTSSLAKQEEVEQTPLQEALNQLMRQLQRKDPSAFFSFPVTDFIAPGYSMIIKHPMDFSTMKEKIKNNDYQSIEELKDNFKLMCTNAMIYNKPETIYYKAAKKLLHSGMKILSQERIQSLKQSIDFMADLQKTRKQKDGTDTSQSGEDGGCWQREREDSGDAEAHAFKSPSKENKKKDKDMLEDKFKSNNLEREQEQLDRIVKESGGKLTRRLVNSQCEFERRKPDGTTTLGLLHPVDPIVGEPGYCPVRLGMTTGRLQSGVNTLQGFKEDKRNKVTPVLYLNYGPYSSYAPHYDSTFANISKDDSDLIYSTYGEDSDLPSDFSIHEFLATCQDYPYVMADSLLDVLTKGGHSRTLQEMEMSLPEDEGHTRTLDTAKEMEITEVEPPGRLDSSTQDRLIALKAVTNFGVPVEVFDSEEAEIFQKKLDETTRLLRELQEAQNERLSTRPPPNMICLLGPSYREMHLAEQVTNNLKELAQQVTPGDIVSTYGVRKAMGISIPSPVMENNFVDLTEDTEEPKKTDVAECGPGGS

EOL1 = experiment: Cell viability (EOL-1 cells) (CellTiterGlo); settings: Homo sapiens
A204 = experiment: Cell viability (A204 cells) (CellTiterGlo); settings: Homo sapiens

DC50 [1]: 4.5 nM (active)
Structure (SMILES): COc1cc(-c2cn(C)c(=O)c3cnccc23)cc(OC)c1CN1CCN(CCCCCOc2cc(-c3scnc3C)ccc2CNC(=O)[C@@H]2C[C@@H](O)CN2C(=O)[C@@H](NC(=O)C2(F)CC2)C(C)(C)C)CC1
EC50 (EOL1): 3.4 nM (active)
EC50 (A204): 39.8 nM (active)
